The structures appear in SMILES notation. Like-named read-outs stand apart in the source and are kept apart here.

For one data set, the system named is HIV-1 (HTLV-IIIB strain). The data set can be described thus: Inhibitory activity for HIV-induced cytopathogenicity (MT-4 cells, MTT method). It is filed as cell-based. The settings on record: read-out: 50% inhibitory concentration of HIV infection. As to the method: (§1) In RPMI 1640 culture medium supplemented with 10% heat-inactivated fetal bovine serum, 2 mM of L-glutamine, 100 U/mL of penicillin G and 100 μg/mL of streptomycin, MT-4 cells (HTLV-1 transformed T4-cell line) at a concentration of 1×10^4 /well in a flat-bottom, microtiter plate were infected with 500 TCID50 of HIV-1 (HTLV-IIIB strain). Immediately after virus infection, sample serially diluted with culture medium from stock solution prepared in dimethyl sulfoxide was added to each well in quadriplicate. After 6 days incubation at 37° C., the viability of mock and HIV-infected cells was determined by the 3-(4,5-dimethylthiazol-2-yl)-2,5-diphenyltetrazolium bromide (MTT) method. And also, the cytotoxicity of sample to MT-4 cells not infected with HIV was assessed in parallel with its antiviral activity under the same way as above.

A short description of data set [1]: Cytotoxicity to MT-4 cells not infected with HIV (MTT method). The settings on record: human. The data set is classed as cell-based. As to the method: as §1
(In general: Tetrazolium dyes change colour on reduction, which living cells bring about.)

In data set [2] the test system is human immunodeficiency virus (HIV). The settings on record: cited from earlier work; for side effects: patients, clinical use.
The mark [3] stands for this setting: Human immunodeficiency virus 1, IIIB, MT4, 144 h.
Where [4] appears, read: MT-4 cells not infected with HIV, 6 days, 37° C., MTT, read-out: 50% cytotoxic concentration to MT-4 cells.

For `Cc1cn([C@H]2C[C@H](N=[N+]=[N-])[C@@H](CO)O2)c(=O)[nH]c1=O` [AZT, 3'-Deoxy-3'-azidothymidine, reference compound], the IC50 in the data set on HIV-1 (HTLV-IIIB strain) (setting [3]) is 0.0046 µM. In data set [1] (setting [4]), the CC50 at 144 h came to 22.7 µM. Moreover, the “clinical and immunological status of patients” value in data set [2] (patients with AIDS and AIDS-related complex) was “proven to improve the clinical and immunological status of patients with AIDS and AIDS-related complex”. In data set [2], the side effects result was “serious side effects such as anemia and leukopenia”.
On to `Nc1ccn([C@H]2CC[C@@H](CO)O2)c(=O)n1` [DDC, 2',3'-dideoxycytidine, reference compound], for which, in the data set on HIV-1 (HTLV-IIIB strain) (Human immunodeficiency virus 1, MT4, 144 h, MT-4 cells infected with 500 TCID50 HIV-1 (HTLV-IIIB strain), 6 days, 37° C., MTT), the IC50 amounted to 0.6 µM. Also, the CC50 at 144 h in data set [1] (mt-4 cells) was found to be 17.6 µM. In addition, the side effects entry in data set [2] is “side effects such as peripheral neuropathy and pancreatitis”.
As for `O=c1[nH]cnc2c1ncn2[C@H]1CC[C@@H](CO)O1` [DDI, 2',3'-dideoxyinosine], the side effects result in data set [2] is “side effects such as peripheral neuropathy and pancreatitis”.
As to `CCCCn1c([Se]c2cc(C)cc(C)c2)c(C(C)C)c(=O)[nH]c1=O` [Compound 83, 1-butyl-6-[(3,5-dimethylphenyl)selenenyl]-5-isopropyluracil], the IC50 in the data set with HIV-1 (HTLV-IIIB strain) (setting [3]) worked out at 0.002 µM. For the same compound, in data set [1] (setting [4]), the CC50 at 144 h stood at 28.2 µM.
Consider `Cc1cc(C)cc([Se]c2c(C(C)C)c(=O)[nH]c(=O)n2COCCO)c1` [Compound 12, 6-[(3,5-dimethylphenyl)selenenyl]-1-[(2-hydroxyethoxy)methyl]-5-isopropyluracil], for which, in the data set on HIV-1 (HTLV-IIIB strain) (setting [3]), the IC50 was found to be 0.0019 µM. For the same compound, the CC50 at 144 h in data set [1] (setting [4]) worked out at 29.1 µM.
Turning to `Cc1cccc([Se]c2c(C(C)C)c(=O)[nH]c(=S)n2COCc2ccccc2)c1` [Compound 27, 1-[(benzyloxy)methyl]-5-isopropyl-6-[(3-methylphenyl)selenenyl]-2-thiouracil], in the data set on HIV-1 (HTLV-IIIB strain) (setting [3]), the IC50 amounted to 0.0011 µM. Besides, the CC50 at 144 h in data set [1] (setting [4]) came out at 30 µM.
On to `CCOCn1c([Se]c2cc(F)cc(F)c2)c(C(C)C)c(=O)[nH]c1=O` [Compound 51, 6-[(3,5-difluorophenyl)selenenyl]-1-(ethoxymethyl)-5-isopropyluracil], for which, in the data set on HIV-1 (HTLV-IIIB strain) (setting [3]), the IC50 stood at 0.0012 µM. Moreover, in data set [1] (setting [4]), the CC50 at 144 h was found to be 27.5 µM.
As for `CCOCn1c([Se]c2cccc(C)c2)c(CC)c(=O)[nH]c1=O` [Compound 29, 1-(ethoxymethyl)-5-ethyl-6-[(3-methylphenyl)selenenyl]uracil], in the data set on HIV-1 (HTLV-IIIB strain) (setting [3]), the IC50 was 0.004 µM. In addition, in data set [1] (setting [4]), the CC50 at 144 h amounted to 32.1 µM.
For `CCCCn1c([Se]c2cc(C)cc(C)c2)c(CC)c(=O)[nH]c1=O` [Compound 65, 1-butyl-6-[(3,5-dimethylphenyl)selenenyl]-5-ethyluracil] the same measures were 0.003 µM and 27.9 µM.
Taken in the same sequence, the figures for `Cc1cc(C)cc([Se]c2c(C(C)C)c(=O)[nH]c(=S)n2COCCO)c1` [Compound 6, 6-[(3,5-dimethylphenyl)selenenyl]-1-[(2-hydroxyethoxy)methyl]-5-isopropyl-2-thiouracil] were 0.008 µM and 32.4 µM.

These data come from patent US5889013A, “Pyrimidine acyclonucleoside derivatives” (priority 1994, dated 1999).
